System: A549
Experiment: cells
Conditions: Homo sapiens, A549, read-out: IC50 nM

IC50: 4.2 nM
Compound: CC[C@]1(O)C[C@@H]2CN(CCc3c([nH]c4ccccc34)[C@@](C(=O)OC)(c3cc4c(cc3OC)N(C)[C@H]3[C@@](O)(C(=O)OC)[C@H](OC(C)=O)[C@]5(CC)C=CCN6CC[C@]43[C@@H]65)C2)C1 [Vinblastine]

Source: publication doi:10.1101/041947v2 (biorxiv, 2016)
